Assay: xn = mol fraction of the nth substance listed
Details: 101 kPa

CCOS(=O)(=O)[O-].CC[n+]1ccn(C)c1 + O
viscosity [mPa·s]
Details | 283.15 K | 293.15 K | 303.15 K | 313.15 K | 323.15 K | 333.15 K | 343.15 K
x2 = 0.0023 | 242.3 | – | 81 | 52.62 | 36.24 | 26.16 | –
x2 = 0.1225 | 171.3 | – | 62.11 | 41.51 | 29.17 | 21.46 | 16.37
x2 = 0.1966 | – | 81.3 | 52.09 | 35.42 | 25.3 | 18.81 | –
x2 = 0.427 | 62.49 | 40.03 | 27.26 | 19.53 | – | 11.24 | –
x2 = 0.6124 | – | 21.82 | 15.38 | 11.33 | 8.663 | 6.824 | 5.518
x2 = 0.798 | 14.52 | 10.01 | 7.24 | 5.453 | 4.246 | 3.402 | 2.791
x2 = 0.8983 | 6.801 | 4.853 | 3.618 | 2.793 | 2.221 | 1.813 | 1.518

CC[n+]1ccn(C)c1.COS(=O)(=O)[O-] + O
viscosity [mPa·s]
Details | 278.15 K | 288.15 K | 298.15 K | 308.15 K | 318.15 K | 328.15 K | 338.15 K
x2 = 0.0023 | 246.3 | – | – | 54.77 | – | – | 20.53
x2 = 0.0887 | 226 | 129.2 | – | 53.07 | 37.01 | 26.98 | 20.42
x2 = 0.2235 | 164.6 | 97.7 | 62.41 | – | 30.1 | 22.43 | 17.93
x2 = 0.4163 | 81.88 | 51.53 | 34.54 | – | 17.94 | 13.72 | –
x2 = 0.6106 | 36.75 | 24.28 | 16.97 | 12.4 | 9.404 | 7.362 | –
x2 = 0.7999 | 14.47 | 9.971 | 7.21 | 5.427 | 4.222 | 3.378 | 2.767
x2 = 0.8948 | 6.791 | – | 3.635 | – | 2.247 | 1.836 | 1.534

Source: a compilation of properties of binary mixtures (doi:10.1021/je300622r)
